Molecular target: T1, PME-1 (PP2A-specific methylesterase) (Homo sapiens, UniProt Q9Y570)
T1 sequence (Q9Y570 2-386): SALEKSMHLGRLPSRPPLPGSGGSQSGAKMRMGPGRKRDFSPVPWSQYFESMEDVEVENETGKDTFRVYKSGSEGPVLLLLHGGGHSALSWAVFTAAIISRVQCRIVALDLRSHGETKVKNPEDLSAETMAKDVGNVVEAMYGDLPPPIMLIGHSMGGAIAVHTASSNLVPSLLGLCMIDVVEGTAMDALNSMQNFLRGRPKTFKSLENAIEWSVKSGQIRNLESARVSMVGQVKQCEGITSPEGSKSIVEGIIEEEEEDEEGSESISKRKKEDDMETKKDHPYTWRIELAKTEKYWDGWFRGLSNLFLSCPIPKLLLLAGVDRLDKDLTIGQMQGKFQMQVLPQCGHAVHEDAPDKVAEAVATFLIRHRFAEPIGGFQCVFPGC
Assay type: biochemical

Q: How did the IC50 turn out when CCCCCCCCCCCCCCCCCCCC(=O)NCCc1c[nH]c2ccc(O)cc12 [EHT, eicosinoyl-5-hydroxytryptamide] was run?
A: Its IC50 is 3.9 µM.

— PMC5038983 (The Journal of neuroscience : the official journal of the …, 2011)
